Measured values as given in patent US9695155B2, “Herbicidal substituted pyrimidinyloxy benzene compounds” (E. I. DU PONT DE NEMOURS AND COMPANY, priority 2013, dated 2017).

Key:
wheat, winter = experiment: Test C postemergence; format: in vivo, Triticum aestivum; conditions: Triticum aestivum, post-emergence
In short: (§1)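 Sown in loam/sand → sprayed pre-emergence; or grown to 1–4 leaves in peat mix → sprayed post-emergence. Same solvent/surfactant formulation both ways. Greenhouse 13–15 d. Score 0–100 visual.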

velvetleaf [1] = experiment: Test A postemergence; format: in vivo, Abutilon theophrasti; conditions: Abutilon theophrasti, post-emergence, 240 h, 0 to 100 scale where 0 is no effect and 100 is complete control, read-out: Plant response rating, Velvetleaf
In short: (§2)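 Scoring: eye-based comparison with untreated controls, 0 for no effect through 100 for complete control, at about day 10. Treatments: directed soil spray preemergence; foliar spray postemergence on 2–10 cm plants at the one- to two-leaf stage. Medium: loam soil with sand.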

large (Lg) crabgrass [2] = experiment: Test A postemergence; format: in vivo, Digitaria sanguinalis; conditions: Digitaria sanguinalis, post-emergence, 240 h
In short: as §2

chickweed = experiment: Test C postemergence; format: in vivo, Stellaria media; conditions: Stellaria media, post-emergence
In short: as §1

velvetleaf [3] = experiment: Test A preemergence; format: in vivo, Abutilon theophrasti
In short: as §2

velvetleaf [4] = experiment: Test C postemergence; format: in vivo, Abutilon theophrasti; conditions: Abutilon theophrasti, post-emergence
In short: as §1

soybean = experiment: Test C postemergence; format: in vivo, Glycine max; conditions: Glycine max, post-emergence
In short: as §1

pigweed [5] = experiment: Test A postemergence; format: in vivo, Amaranthus retroflexus; conditions: Amaranthus retroflexus, post-emergence, 0 to 100 scale where 0 is no effect and 100 is complete control, read-out: Plant response rating, Pigweed
In short: as §2

giant foxtail [6] = experiment: Test A preemergence; format: in vivo, Setaria faberii; conditions: Setaria faberi, pre-emergence, 240 h
In short: as §2

giant foxtail [7] = experiment: Test A postemergence; format: in vivo, Setaria faberii; conditions: Setaria faberi, post-emergence, 240 h, 0 to 100 scale where 0 is no effect and 100 is complete control, read-out: Plant response rating, Foxtail, Giant
In short: as §2

large (Lg) crabgrass [8] = experiment: Test A preemergence; format: in vivo, Digitaria sanguinalis; conditions: Digitaria sanguinalis, pre-emergence, 240 h
In short: as §2

ragweed = experiment: Test C postemergence; format: in vivo, Ambrosia elatior; conditions: Ambrosia artemisiifolia, post-emergence
In short: as §1

pigweed [9] = experiment: Test A preemergence; format: in vivo, Amaranthus retroflexus; conditions: Amaranthus retroflexus, pre-emergence
In short: as §2

giant foxtail [10] = experiment: Test C postemergence; format: in vivo, Setaria faberii; conditions: Setaria faberi, post-emergence
In short: as §1

wild oat = experiment: Test C postemergence; format: in vivo, Avena fatua; conditions: Avena fatua, post-emergence
In short: as §1

[11] = 125 g ai/ha, 0 to 100 scale where 0 is no effect and 100 is complete control, read-out: Plant response rating, Crabgrass, Large

## FC(F)c1cnn(-c2ccccc2Oc2ncc(Cl)cn2)c1 [Compound 80, 5-chloro-2-[2-[4-(difluoromethyl)-1H-pyrazol-1-yl]phenoxy]pyrimidine]
wheat, winter; 125 g ai/ha, postemergence, read-out: Plant response rating (0 to 100), Wheat
  plant injury at 125 g/ha: 30%
wheat, winter; Postemergence, 31 g ai/ha, scale 0 to 100 (0 no effect, 100 complete control), 13 to 15 days, read-out: Plant response rating, Wheat
  plant injury at 31 g/ha: 0%
wheat, winter; Postemergence, 62 g ai/ha, scale 0 to 100 (0 no effect, 100 complete control), read-out: Plant response rating, Wheat
  plant injury at 62 g/ha: 5%
Velvetleaf [1]; 125 g ai/ha
  pest or weed control at 125 g/ha: 100%
Velvetleaf [1]; 500 g ai/ha
  pest or weed control at 500 g/ha: 100%
Large (Lg) crabgrass [2]; [11]
  pest or weed control at 125 g/ha: 80%
Large (Lg) crabgrass [2]; 500 g ai/ha, 0 to 100 scale, 0 no effect, 100 complete control, read-out: Plant response rating Crabgrass, Large
  pest or weed control at 500 g/ha: 100%
chickweed; 16 g ai/ha, postemergence, visual rating, scale 0 to 100 (0 no effect, 100 complete control), 13 to 15 days, read-out: Chickweed plant response rating
  pest or weed control at 16 g/ha: 50%
chickweed; 125 g ai/ha, postemergence, read-out: Plant response rating (0 to 100), Chickweed
  pest or weed control at 125 g/ha: 70%
chickweed; Postemergence, 31 g ai/ha, scale 0 to 100 (0 no effect, 100 complete control), 13 to 15 days, read-out: Plant response rating, Chickweed
  pest or weed control at 31 g/ha: 60%
chickweed; Postemergence, 62 g ai/ha, scale 0 to 100 (0 no effect, 100 complete control), read-out: Plant response rating, Chickweed
  pest or weed control at 62 g/ha: 65%
Velvetleaf [3]; 125 g ai/ha, 0 to 100 scale where 0 is no effect and 100 is complete control
  Plant response rating, Velvetleaf: 80
Velvetleaf [3]; Abutilon theophrasti, pre-emergence, 240 h, 500 g ai/ha, 0 to 100 scale, 0 no effect, 100 complete control, approx. 10 days, read-out: Velvetleaf plant response rating
  pest or weed control at 500 g/ha: 90%
Velvetleaf [4]; 125 g ai/ha, postemergence, read-out: Plant response rating (0 to 100), Velvetleaf
  pest or weed control at 125 g/ha: 75%
Velvetleaf [4]; Postemergence, 31 g ai/ha, scale 0 to 100 (0 no effect, 100 complete control), 13 to 15 days, read-out: Plant response rating, Velvetleaf
  pest or weed control at 31 g/ha: 45%
Velvetleaf [4]; Postemergence, 62 g ai/ha, scale 0 to 100 (0 no effect, 100 complete control), read-out: Plant response rating, Velvetleaf
  pest or weed control at 62 g/ha: 65%
soybean; 125 g ai/ha, postemergence, read-out: Plant response rating (0 to 100), Soybean
  Soybean plant response rating (crop injury, 0-100 scale) at 125 g/ha: 80%
soybean; Postemergence, 31 g ai/ha, scale 0 to 100 (0 no effect, 100 complete control), 13 to 15 days
  Soybean plant response rating (crop injury, 0-100 scale) at 31 g/ha: 60%
soybean; Postemergence, 62 g ai/ha, scale 0 to 100 (0 no effect, 100 complete control)
  Soybean plant response rating (crop injury, 0-100 scale) at 62 g/ha: 75%
Pigweed [5]; 125 g ai/ha
  pest or weed control at 125 g/ha: 100%
Pigweed [5]; 500 g ai/ha
  pest or weed control at 500 g/ha: 100%
Giant foxtail [6]; 125 g ai/ha, 0 to 100 scale where 0 is no effect and 100 is complete control, read-out: Plant response rating, Foxtail, Giant
  pest or weed control at 125 g/ha: 90%
Giant foxtail [6]; 500 g ai/ha, 0 to 100 scale, 0 no effect, 100 complete control, approx. 10 days, read-out: Foxtail, Giant plant response rating
  pest or weed control at 500 g/ha: 100%
Giant foxtail [7]; 125 g ai/ha
  pest or weed control at 125 g/ha: 80%
Giant foxtail [7]; 500 g ai/ha
  pest or weed control at 500 g/ha: 90%
Large (Lg) crabgrass [8]; [11]
  pest or weed control at 125 g/ha: 100%
Large (Lg) crabgrass [8]; 500 g ai/ha, 0 to 100 scale, 0 no effect, 100 complete control, approx. 10 days, read-out: Crabgrass, Large plant response rating
  pest or weed control at 500 g/ha: 100%
ragweed; 125 g ai/ha, postemergence, read-out: Plant response rating (0 to 100), Ragweed
  pest or weed control at 125 g/ha: 45%
ragweed; Postemergence, 31 g ai/ha, scale 0 to 100 (0 no effect, 100 complete control), 13 to 15 days, read-out: Plant response rating, Ragweed
  pest or weed control at 31 g/ha: 40%
ragweed; Postemergence, 62 g ai/ha, scale 0 to 100 (0 no effect, 100 complete control), read-out: Plant response rating, Ragweed
  pest or weed control at 62 g/ha: 40%
Pigweed [9]; 125 g ai/ha, 0 to 100 scale where 0 is no effect and 100 is complete control, read-out: Plant response rating, Pigweed
  pest or weed control at 125 g/ha: 0%
Pigweed [9]; 240 h, 500 g ai/ha, 0 to 100 scale, 0 no effect, 100 complete control, approx. 10 days, read-out: Pigweed plant response rating
  pest or weed control at 500 g/ha: 0%
Giant foxtail [10]; 16 g ai/ha, postemergence, visual rating, scale 0 to 100 (0 no effect, 100 complete control), 13 to 15 days, read-out: Foxtail, Giant plant response rating
  pest or weed control at 16 g/ha: 0%
Giant foxtail [10]; 125 g ai/ha, postemergence, read-out: Plant response rating (0 to 100), Foxtail, Giant
  pest or weed control at 125 g/ha: 5%
Giant foxtail [10]; Postemergence, 31 g ai/ha, scale 0 to 100 (0 no effect, 100 complete control), 13 to 15 days, read-out: Plant response rating, Foxtail, Giant
  pest or weed control at 31 g/ha: 5%
Giant foxtail [10]; Postemergence, 62 g ai/ha, scale 0 to 100 (0 no effect, 100 complete control), read-out: Plant response rating, Foxtail, Giant
  pest or weed control at 62 g/ha: 5%
Wild oat; 125 g ai/ha, postemergence, read-out: Plant response rating (0 to 100), Oat, Wild
  pest or weed control at 125 g/ha: 10%
Wild oat; Postemergence, 31 g ai/ha, scale 0 to 100 (0 no effect, 100 complete control), 13 to 15 days, read-out: Plant response rating, Oat, Wild
  pest or weed control at 31 g/ha: 0%
Wild oat; Postemergence, 62 g ai/ha, scale 0 to 100 (0 no effect, 100 complete control), read-out: Plant response rating, Oat, Wild
  pest or weed control at 62 g/ha: 5%
